Experimental data taken from patent US11739132B2, “Separation moieties and methods of use thereof” (Werewolf Therapeutics, Inc., priority 2019, dated 2023).
No end group written: not given here.

Experiments:
[1] = tested on: cell lysates of MC38, CT26, CT26-MMP9+ and myofibroblast cell lines; assay: FRET assay of cell lysates (cell-associated activity); format: biochemical, mouse; details: for Cleavage activity detected in cell lysates: four cell lines
Text: (§1) Conditioned media and cell lysate samples were received from Charles River Laboratories for the murine colon cancer cell lines: MC38 (epithelial), CT26 (fibroblast), and CT26 transduced with a lentivirus for doxycyclin-inducible expression of MMP9 (CT26 pLVX MMP9-5T4+dox). An immortalized mouse intestinal myofibroblast cell line (ABM Good #T0565) was used as a control stromal cell line, grown under manufacturer recommended conditions. Conditioned media and cell lysate samples were also received for screening purposes from ABM Good for the immortalized mouse colonic epithelial cell line YAMC (ABM Good #T0567).
(§2) Conditioned media samples were prepared according to the standard protocol using logarithmic phase cells. Briefly, cells were grown for 16h in either serum-free media or in complete media containing 10% fetal bovine serum (FBS). After conditioned media collection, the adherent cells were washed then lysed on plate with non-denaturing lysis buffer to produce a lysed “cell pellet” to capture any activity that remained associated with the cells. All cell culture-derived conditioned media samples, cell lysates from Charles River Laboratories, and cell lysates derived internally were processed with identical methods, to allow comparison between samples.
To test for cell pellet-associated FAPa activity, the cell lysates were clarified by ultracentrifugation and then assayed neat in the FRET assay. […] A modest 2-fold greater activity was detected in the three tumor cell lines over the myofibroblast cell line. For comparison, CTSL1 activity was also tested in the cell lysates. CTSL1 is a lysosomal enzyme; therefore, activity toward CTSL1_1 was expected to be similarly abundant in all four cell lines. The ratio of CTSL1_1 cleavage in tumor vs control cell lines in this screening format was ˜1× (grey bars, left-hand bar of each pair, FIG. 41). FAPα (fibroblast activating protein-alpha) is a marker for fibroblast (CT26) and myofibroblast cell lines.

[2] = tested on: conditioned media from MC38, CT26, CT26 pLVX MMP9-5T4+dox and myofibroblast cell lines; assay: FRET end-point screen of conditioned media; format: biochemical, mouse; details: conditioned media
Text: Proteolytic activity was screened in the conditioned media samples by fluorescent resonance energy transfer (FRET) assays with the substrates listed in Table 10.
as §1, §2
The resulting conditioned media was buffer exchanged with PBS and concentrated to 10× the original titer as a stock solution.
FBS background controls were therefore used for baseline subtraction at each concentration of substrate throughout the FRET experiments.
(§3) In the end-point screening assays, a fixed titer of 10× concentrated sample and a substrate concentration of 10 μM was used. Values reported in the end-point experiments are initial velocity measurements, in relative fluorescence units (RFU) per second. End-point measurements are a starting point for a screen, but the rate of the reaction is non-linearly related to substrate concentration. Therefore, a more accurate representation of activity would be given by steady-state kinetic measurements covering a range of substrate concentrations. To compare activity across cell lines, the data were treated with a Michaelis-Menten model, and the concentration of equivalent enzyme units [E0] was solved.

CTSL1 [3] = biological target: T1, CTSL1 (Homo sapiens, UniProt P07711); assay: In vitro FRET kinetics with CTSL1; format: biochemical; details: 8-mer FRET peptide, Mca/Dnp pair
T1 sequence (P07711 114-333): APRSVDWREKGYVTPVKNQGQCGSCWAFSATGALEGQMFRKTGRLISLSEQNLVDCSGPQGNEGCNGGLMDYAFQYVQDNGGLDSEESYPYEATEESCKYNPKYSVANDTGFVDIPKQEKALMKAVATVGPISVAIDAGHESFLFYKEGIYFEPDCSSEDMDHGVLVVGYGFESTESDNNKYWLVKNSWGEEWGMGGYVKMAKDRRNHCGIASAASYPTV
Procedure: (§4) Enzymes were activated and assayed following the manufacturer's recommendations.
(§5) For CTSL1, enzyme was activated by pre-incubation in assay buffer (50 mM MES, 5 mM DTT, 1 mM EDTA, pH=6) for 15 min. MSP-MS reactions were then started with the mixing of enzyme and substrate, at final CTSL1 concentration of 0.04 ng/μl (0.77 nM), and peptide substrate concentration at 500 nM.
Additional in vitro kinetic experiments were performed to characterize a new candidate motif for CTSL1 enzyme; the CTSL1_2 motif has the sequence […] (SEQ ID NO: 199). […] Yet, initial experiments with the CTSL1_2 FRET substrate were inconclusive, possibly due to artifacts in the FRET assay; therefore, a new FRET peptide construct was designed with the 9-mer sequence […] (SEQ ID NO: 236).
All of the FRET substrates used in these studies have a methoxycoumarin (Mca) fluorophore and dinitrophenyl-lysyl (Dnp) quencher pair at the N- and C-termini of the sequences, respectively.

[4] = tested on: conditioned media from tumor, myofibroblast and YAMC cell lines; assay: FRET steady-state kinetics of conditioned media (enzyme equivalents); format: biochemical, mouse; details: for Secreted activity in conditioned media, steady-state kinetics: tumor cell lines
Text: as §1, §3
Accordingly, initial velocity was measured as a function of substrate concentration, using a 2-fold dilution series from 250 to 1 μM. Data were fitted using non-linear least squares fitting with GraphPad Prism software v 8.0 to the Michaelis-Menten equation:
[formula] where kcat is the rate of product formation under steady-state conditions in units (s^−1), and KM is the Michaelis constant that gives the substrate concentration in molar units (M) at which half maximum velocity of the reaction is produced for a given enzyme, [E0] is the enzyme concentration, and [S] the substrate concentration in (M).
In the assays where purified recombinant enzyme is used, the Michaelis-Menten parameters are as classically defined above. For conditioned media samples, the effective titer of conditioned media per assay was adjusted to approximately a 2× concentrate of the original unprocessed media samples to assure that the detection range matched the signal produced. The enzyme component in the calculation is redefined as a mixture of possible proteases that contribute to the cumulative observed activity, each with intrinsic reactivity toward a substrate. In this case, it is more appropriate to consider kcat and KM as macroscopic constants that represent the overall efficiency of catalysis, and E0 is an enzyme equivalent, expressed in units of concentration. To solve the data fit, kcat/KM can be fixed at that of the recombinant enzyme and enzyme equivalents per cell culture volume can be output. The effective titer of enzyme equivalents in this case can be used to compare the activity produced by the different cell lines.
An immortalized mouse colonic epithelial cell line (YAMC) was used to test activity in the presence of additional control “normal” epithelial cells. YAMC's are given the calculated enzyme equivalents (nM) resulting from all of these steady state experiments, to allow for comparison of the amount of equivalent activity per sample. For example, the YAMC control epithelial cell line produced activity with the ADAM17_2 substrate equivalent to that of 0.52±0.03 nM of ADAM17 recombinant enzyme. This cell line compares directly to MC38, also of epithelial origin, which had activity equivalent to that of 0.32±0.03 nM of ADAM17 recombinant enzyme. […] This cell line required non-standard cell culture conditions, including growth with murine IFNγ, and at low temperature to maintain, and may not be fully representative of epithelial cell lines.

CTSL1 [5] = biological target: T1, CTSL1; assay: 30-mer tandem linker library MSP-MS, CTSL1; format: biochemical
Procedure: (§6) Protease specificity screening was performed using Multiplexed Substrate Profiling by Mass Spectrometry (MSP-MS), the method described in, e.g. O'Donoghue A. J. et al., Nat Methods., 2012; 9(11): 1095-1100. This method employs a physico-chemically diverse peptide library as substrates for proteases, and reactions are monitored over time with mass spectrometric detection of cleaved products. The resulting cleavages are assessed for specific cleavage in the enzyme-treated sample by comparison with results from a no-enzyme control incubation.
as §4, §5
This hypothesis was tested in the context of the hybrid linker design experiment. Shown in FIG. 46 are the results of cleavage of two matched 30-mer peptides with the following sequences:
(§7) To analyze the catalytic efficiency of candidate tandem linker designs, a tailored library approach using MSP-MS was applied. For the tailored library, a set of nineteen synthetic peptides, 30 amino acids in length (30-mers), were designed to test whether sequence context affects the efficiency of cleavage. Peptides were assayed in a multiplex format together as a substrate library with individual recombinant enzymes, using MSP-MS. For quantitative comparisons, kinetic analysis was performed over a time course, and results are reported either as a catalytic efficiency kcat/KM for well-behaved first-order kinetics, or as observed rates as kobs for more complex kinetic behavior.
(§8) Catalytic efficiency (kcat/KM) estimations were used to rank the top cleaved substrates in the MSP-MS reaction. Peptides were quantified by mass spectrometric label-free quantitation from the MS1 precursor ion peak areas for each peptide. Enzyme progress curves were modeled from six-time point measurements in GraphPad Prism. Data were fitted using non-linear least squares fitting to the first order kinetics equation:
(§9) [formula] where Y=percent product formation or substrate consumption, and t=time. The observed rate is a function of the enzyme concentration [E0], and an observed catalytic efficiency (kcat/KM) in units M^−1s^−1

FAPα = biological target: T2, FAPα (Homo sapiens, UniProt Q12884); assay: 30-mer tandem linker library MSP-MS, FAPα; format: biochemical; details: at PGGP|AGIG and GP|AGLYAQ respectively
T2 construct: purchased R&D Systems (Bio-techne) 930-ADB-010
T2 sequence (Q12884 1-760): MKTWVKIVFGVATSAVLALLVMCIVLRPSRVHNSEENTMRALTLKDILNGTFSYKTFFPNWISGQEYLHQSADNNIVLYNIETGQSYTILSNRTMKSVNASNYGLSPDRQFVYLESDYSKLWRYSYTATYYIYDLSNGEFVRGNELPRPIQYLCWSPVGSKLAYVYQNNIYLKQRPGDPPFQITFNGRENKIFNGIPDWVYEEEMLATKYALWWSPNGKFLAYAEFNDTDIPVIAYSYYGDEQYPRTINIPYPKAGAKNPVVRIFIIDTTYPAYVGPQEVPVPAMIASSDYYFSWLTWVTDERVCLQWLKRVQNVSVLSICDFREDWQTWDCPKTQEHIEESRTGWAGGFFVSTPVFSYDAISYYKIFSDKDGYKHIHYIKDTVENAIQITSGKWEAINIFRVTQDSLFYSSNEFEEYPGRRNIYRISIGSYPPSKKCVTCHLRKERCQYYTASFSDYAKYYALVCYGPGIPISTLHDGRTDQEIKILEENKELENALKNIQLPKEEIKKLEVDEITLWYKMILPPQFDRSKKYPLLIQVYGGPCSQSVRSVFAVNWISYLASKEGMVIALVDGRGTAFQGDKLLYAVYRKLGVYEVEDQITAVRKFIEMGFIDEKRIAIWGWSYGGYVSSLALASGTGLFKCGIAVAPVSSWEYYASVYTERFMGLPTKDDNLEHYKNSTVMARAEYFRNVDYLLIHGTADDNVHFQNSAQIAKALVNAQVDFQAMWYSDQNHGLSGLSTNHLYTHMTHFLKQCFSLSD
Procedure: as §6, §4
FAPα activity was tested with fluorescence detection using a generic Z-GP-AMC substrate. For FRET assays, the final enzyme concentration was 5 nM and the buffer was 50 mM TRIS HCl, 1 M NaCl, 1 mg/mL BSA, pH 7.5.
as §7, §8, §9

Thrombin = biological target: T3, Thrombin (Homo sapiens, UniProt P00734); assay: 30-mer library counter-screening MSP-MS, Thrombin; format: biochemical
T3 construct: purchased R&D Systems (Bio-techne) 2196-SE-200
Procedure: as §6, §4
Thrombin was activated following the manufacturer's recommended conditions by pre-incubation with the enzyme with thermolysin for 15 min, and then the thermolysin was quenched with 1,10 phenanthroline treatment. Activated thrombin was assayed at 1.2 nM in activation buffer: 50 mM TRIS HCl, 10 mM CaCl2, 150 mM NaCl, 0.05% (w/v) Brij-35, pH 7.5.
(§10) Counter-screening was performed against the enzymes Thrombin, Factor Xa and Hepsin using this library as well, and for calibration of activity, a positive-control peptide bearing favorable motifs for these enzymes was also designed (ALU30-19).
as §8, §9
(§11) Counter-screening with Thrombin, Factor Xa and Hepsin was also performed following the same analysis. The library peptide Alu30-19 was designed to include authentic sites for each enzyme, for comparison of overall cleavage efficiency as well as cleavage site specificity within each motif. The substrate designed for Factor Xa has the motif FNPR|TFGS (SEQ ID NO: 248), derived from the Factor Xa cleavage site in Thrombin. The substrate motif for Thrombin was FPR|, a common tool substrate motif. The substrate motif for hepsin was RKRR|GSRG (SEQ ID NO: 249) from filaggrin.

Hepsin = biological target: T4, Hepsin (Homo sapiens, UniProt P05981); assay: 30-mer library counter-screening MSP-MS, Hepsin; format: biochemical
T4 construct: purchased R&D Systems (Bio-techne) 4776-SE
T4 sequence (P05981 163-417 limits assumed): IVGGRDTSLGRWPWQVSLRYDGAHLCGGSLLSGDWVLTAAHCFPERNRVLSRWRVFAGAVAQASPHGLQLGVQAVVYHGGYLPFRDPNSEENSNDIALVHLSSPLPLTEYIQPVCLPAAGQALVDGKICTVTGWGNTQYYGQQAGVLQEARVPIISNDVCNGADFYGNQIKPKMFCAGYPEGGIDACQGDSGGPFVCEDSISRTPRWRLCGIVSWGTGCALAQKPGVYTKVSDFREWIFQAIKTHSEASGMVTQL
T4 sequence (P05981 1-162 partner limits assumed): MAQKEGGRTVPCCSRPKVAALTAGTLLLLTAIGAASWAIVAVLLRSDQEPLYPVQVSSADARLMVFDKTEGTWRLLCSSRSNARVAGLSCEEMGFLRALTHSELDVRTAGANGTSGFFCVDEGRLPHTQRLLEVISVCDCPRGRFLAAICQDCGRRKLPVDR
Procedure: as §6, §4
Hepsin was pre-activated overnight at 37° C. in the manufacturer recommended buffer: 100 mM TRIS, 10 mM CaCl2, 150 mM NaCl, 0.05% Brij-35, pH 8.0. Activity was measured with 2.4 or 24 nM enzyme in the buffer: 50 mM TRIS HCl at pH 7.4.
as §10, §8, §9, §11

ALFKSSFP (also: Mca fluorophore and Dnp quencher, places not given here) [CTSL1_1, FRET substrate with Mca fluorophore and Dnp quencher]
Cell-associated activity, MC38 vs other cell lines ([1]; cell lysates): significantly greater in MC38 cells over the myofibroblast, CT26 parental, and CT26-MMP9+ cells | Ratio of cleavage in tumor vs control cell lines, cell lysates ([1]; cell lysates assayed neat): ~1 × | Cleavage activity detected in cell lysates [1]: detected in all of the cell lysates | Substrate cleavage activity, CT26-MMP9+ cell line ([2]; end-point screen): undetectable activity | Substrate cleavage activity, MC38 and CT26 parental cell lines ([2]; end-point screen): low activity | Substrate cleavage activity, control myofibroblast cell line ([2]; end-point screen): undetectable activity | Cleavage of 8-mer FRET substrate by CTSL1 (CTSL1 [3]): highly efficiently | Secreted activity in conditioned media, steady-state kinetics [4]: no measurable activity above background | −1 site product formation by CTSL1 (CTSL1 [5]; matched 30-mer peptides SEQ ID NO: 207 (CTSL1_1) and 219 (CTSL1_2)): had a −1 site product

PGGPAGIG (also: Mca fluorophore and Dnp quencher, places not given here) [FAPα_1, FRET substrate with Mca fluorophore and Dnp quencher]
Cell-associated activity in myofibroblasts ([1]; cell lysates): did have cell-associated activity | Activity in three tumor cell lines over myofibroblast cell line, cell lysates ([1]; cell lysates assayed neat): 2 fold | Cleavage activity detected in cell lysates [1]: detected in all four cell lines | Cleavage of motif by FAPα (FAPα): able to cleave | Substrate cleavage activity in the end-point screen [2]: very low, but was still detected in all three tumor cell lines | Secreted activity in myofibroblast conditioned media, steady-state kinetics ([4]; myofibroblast): no measurable secreted activity | Secreted activity in conditioned media, steady-state kinetics [4]: lower activity than that associated with the cell pellet

RGGGPAGLYAQPLAQKLKSSALFKSSFPGG [Alu30-15]
Relative efficiency of 30-mer peptide cleavage by thrombin (Thrombin): cleaved at lower efficiency | Relative efficiency of cleavage by hepsin (Hepsin): slightly higher hepsin susceptibility | Relative efficiency of 30-mer peptide cleavage by CTSL1 (CTSL1 [5]): lower CTSL1 activity
